Results: US11453657B2 (GlaxoSmithKline Intellectual Property Development Limited, priority 2018, dated 2022)
Read-outs that look alike come from different tables or passages of the source.

Test system: P. falciparum infected erythrocytes
Experiment: P. falciparum growth inhibition assay ([3H]hypoxanthine incorporation)
Type: cell-based, Plasmodium falciparum
Settings: Plasmodium falciparum, Erythrocyte
Experimental: P. falciparum Growth Inhibition Assay.
The sensitivity of P. falciparum infected erythrocytes to the compound was determined in duplicate using the [3H]hypoxanthine incorporation method with an inoculum of 0.5% parasitemia (ring stage) and 2% hematocrit. The parasites were grown in RPMI 1640, 25 mM HEPES and supplemented with 5% Albumax. Plates are incubated at 37° C., 5% CO2, 5% O2, 90% N2. After 24 h of incubation, [3H]hypoxanthine is added and plates are incubated for another 24 h. After that period, plates are harvested on a glass fiber filter using a TOMTEC Cell harvester 96. Filters are dried and melt on scintillator sheets and the bound radioactivity is quantified by use of a Wallac Microbeta Trilux (Model 1450 LS—Perkin Elmer). IC50s are determined using Grafit 7 program (Grafit program; Erithacus Software, Horley, Surrey, United Kingdom).
Each example compound was tested generally in accordance with the above-mentioned assay and the PfIC50 value for each compound is reported in the Table below and according to the following: […]

[1] = [3H]hypoxanthine incorporation, 0.5% parasitemia, 2% hematocrit, 48 h, read-out: PfIC50 Media

| IC50 [1] [nM] | IC50 (read-out: average PfIC50) [nM] | Structure (SMILES) |
| --- | --- | --- |
| < 100 | ≤ 50 | O=C(c1ccc(OC[C@H](O)Cn2nccn2)cc1)N1CC[C@H](c2ccc(F)cc2)C1 [Example 16, ((R)-3-(4-fluorophenyl)pyrrolidin-1-yl)(4-((R)-2-hydroxy-3-(2H-1,2,3-triazol-2-yl)propoxy)phenyl)methanone] |
| 100 to 500 |  | O=C(c1ccc(OC[C@@H](O)Cn2cnnn2)cc1)N1CC[C@H](c2ccc(F)cc2)C1 [Example 6, ((R)-3-(4-Fluorophenyl)pyrrolidin-1-yl)(4-((S)-2-hydroxy-3-(1H-tetrazol-1-yl)propoxy)phenyl)methanone] |
